Columns and labels:
[1] = tested on: thymus, spleen, adrenal gland and kidney; experiment: Organ weights (thymus, spleen, adrenal gland, kidney) after three-month treatment; format: in vivo, B6 male mice; details: s.c. 1 mg/kg daily, three months
Description: B6 male mice (8-week-old) were daily subjected for three months to a subcutaneous injection of either vehicle (NaCl 0.9%), Dex, CpdX, CpdX(eA), CpdX(eB), CpdX-D3, CpdX-D3(eA) or CpdX-D3(eB) (1 mg/kg body weight, diluted in vehicle). Following these treatments, four organs (thymus, spleen, adrenal gland and kidney) were harvested and weighted.

[2] = Blood glucose and intraperitoneal glucose tolerance test (IPGTT) after three-month treatment; format: in vivo, B6 male mice; details: three months; glucose i.p. injection
Description: B6 male mice (8-week-old) were daily subjected for three months to a subcutaneous injection of either vehicle (NaCl 0.9%), Dex, CpdX, CpdX(eA), CpdX(eB), CpdX-D3, CpdX-D3(eA) or CpdX-D3(eB) (1 mg/kg body weight, diluted in vehicle). Mice were over-night-fasted. Mouse blood glucose concentration was measured before (To) and during two hours (T120) after glucose i.p. injection ([…]).

[3] = tested on: OVA-induced allergic conjunctivitis; experiment: Ovalbumin (OVA)-induced allergic conjunctivitis; format: in vivo, Balb/C mice; details: 0.1% instillation D22 to D24, 20 minutes after the last OVA challenge
Description: To investigate the anti-inflammatory effect of CpdX or CpdX-D3 on an allergic conjunctivitis, Balb/C mice were intraperitoneally sensitized with 50 μg OVA with alum on both days D1 and D8, and then challenged from D15 to D21 with 250 μg OVA in 5 μL of sterilized vehicle (0.9% NaCl), which were directly instilled onto the conjunctival sac. From D22 to D24, mice were divided into several groups, and received instillations with either OVA alone, OVA together with 0.1% of either Dex, CpdX, CpdX(eA), CpdX(eB), CpdX-D3, CpdX-D3(eA) or CpdX-D3(eB).
The clinical appearance of mouse eyes was evaluated 20 minutes after the last instillation on D24. Clinical signs (conjunctival hyperemia, lid edema and tearing) were scored to evaluate the occurrence and severity of conjunctivitis as described by Gimenes et al. (2015. Experimental Eye Research 134:24-32). Parameters were graded on a scale ranging from 0 to 3, (0=absence, 1=mild, 2=moderate, and 3=severe symptoms), each animal receiving a total clinical score ranging from 0 to 9. The data were expressed as mean±SEM with at least four mice per treatment.

[4] = tested on: DSS-induced Th17 ulcerative colitis; experiment: Dextran sodium sulfate (DSS)-induced ulcerative colitis; format: in vivo, Balb/C mice; details: for pro-inflammatory genes overexpressed in DSS-induced ulcerative colitis (IL-1β, IL-6, IL-17a, IL-17f, TSLP, MMP13): colon, q-RT-PCR, D14; for colonic villus/crypt structure (histology) / mucosal and submucosal cell infiltration (histology): i.p. 1 mg/kg on D11, D12, D13, 3% DSS 13 days
Description: To investigate the anti-inflammatory activity of CpdX and CpdX-D3 on a Th17 ulcerative colitis, Balb/C mice were treated with 3% DSS in drinking water for 13 days, with or without an intraperitoneal administration of either Dex, CpdX, CpdX(eA), CpdX(eB), CpdX-D3, CpdX-D3(eA) or CpdX-D3(eB) (1 mg/kg of body weight) on D11, D12 and D13.
At D14, RNA transcripts were extracted from mouse colons. IL-1β, IL-6, IL-17a, IL-17f, TSLP and MMP13 transcripts were analyzed by q-RT-PCR. Colon samples were also harvested for histological analyses (with H&E staining).

[5] = tested on: dorsal skin of Balb/C mice; experiment: Skin epidermis atrophy after 8-day topical treatment of dorsal skin; format: in vivo; details: eight-day topical treatment
Description: To investigate whether, similarly to Dex, a topical administration of CpdX could result in a skin atrophy, Balb/C mice were shaved on the dorsal skin. Ethanol (vehicle), Dex, CpdX or either one of its two enantiomers CpdX(eA) or CpdX(eB), as well as the deuterated form CpdX-D3 or either one of its two enantiomers CpdX-D3(eA) or CpdX-D3(eB), were topically applied onto the dorsal skin for 8 days.
Upon completion of the treatments, RNA transcripts were extracted from dorsal skin samples and the transcripts of Kindlin-1 and REDD1 genes were analyzed by q-RT-PCR. Histological and morphometric analyses of the dorsal skin were also performed.

adrenal glands = experiment: Corticosterone synthesis and adrenal gland after three-month treatment; format: in vivo, B6 male mice; details: three months; for cortex layers, most notably the fasciculata zone, of the adrenal glands (histology) / transcripts of Cyp11a, Cyp11b1 and HSD3β genes in adrenal glands (corticosterone synthesis pathway): s.c. 1 mg/kg daily; for transcripts of Cyp11a, Cyp11b1 and HSD3β genes in adrenal glands (corticosterone synthesis pathway): q-RT-PCR; for plasmatic corticosterone level at 10 a.m.: vs Vehicle
Description: B6 male mice (8-week-old) were daily subjected for three months to either a subcutaneous injection of vehicle (NaCl 0.9%), Dex, CpdX, CpdX(eA), CpdX(eB), CpdX-D3, CpdX-D3(eA) or CpdX-D3(eB) (1 mg/kg body weight, diluted in vehicle).
Following this long-term treatment, blood was collected at 10 a.m. and 6 p.m. by retro-orbital puncture in lithium-heparin coated vials, and the plasmatic level of corticosterone was determined. Adrenal glands were harvested and weighted. RNA transcripts were extracted and transcripts of the Cyp11a, Cyp11b1, Cyp11b2 and HSD3β genes were analyzed by q-RT-PCR. Histological analyses of the adrenal glands were also carried out.

[6] = tested on: collagen-induced Th17 rheumatoid arthritis-like inflammation; experiment: Collagen-induced arthritis (CIA); format: in vivo, mice (DBA-1 strain); details: i.p. 1 mg/kg daily for 10 days (T0 to T10); 1 mg/kg
Description: Mice were treated with collagen to induce a Th17 rheumatoid arthritis-like inflammation as described by Inglis et al. (2007. Arthritis Res Ther. 9(5):R113) and Geboes et al. (2009. Arthritis Rheum. 60(2):390-5).
Male mice (DBA-1 strain) were subcutaneously-injected with 100 μg collagen per mouse on D0. The hind paw thickness at the ankle level was regularly measured with a caliper. When the ankle thickness had reached around 4 mm (T0, i.e., 30 to 50 days after the collagen injection on D0), mice were daily intraperitoneally-injected for 10 days (T0 to T10) with either vehicle (NaCl 0.9%), Dex, CpdX, CpdX(eA), CpdX(eB), CpdX-D3, CpdX-D3(eA) or CpdX-D3(eB) (1 mg/kg body weight diluted in NaCl 0.9%), and the hind paw thickness at the ankle level was daily measured with a caliper. Pictures of the hind paws were taken at days T0 and T10 (before and after the treatment with either Vehicle, Dex, CpdX, CpdX(eA), CpdX(eB), CpdX-D3, CpdX-D3(eA) or CpdX-D3(eB)), in order to assess the course of swelling.
RNA transcripts were extracted from whole hind paws of collagen-untreated and collagen-treated mice at T0 and T10. IL-1β, IL-6, IL-17a, IL-17f and TNFα transcripts were analyzed by q-RT-PCR.

SMILES	thymus apoptosis (thymus weight) [1]	blood glucose level during two-hour IPGTT [2]	clinical signs of allergic conjunctivitis (conjunctival hyperemia, lid edema and tearing) [3]	pro-inflammatory genes overexpressed in DSS-induced ulcerative colitis (IL-1β, IL-6, IL-17a, IL-17f, TSLP, MMP13) [4]	colonic villus/crypt structure (histology) [4]	mucosal and submucosal cell infiltration (histology) [4]	epidermal thickness (morphometric analyses) [5]	cortex layers, most notably the fasciculata zone, of the adrenal glands (histology) (adrenal glands)	transcripts of Cyp11a, Cyp11b1 and HSD3β genes in adrenal glands (corticosterone synthesis pathway) (adrenal glands)	plasmatic corticosterone level at 10 a.m. (adrenal glands)	hind paw thickness at the ankle level [6]
[2H]C([2H])([2H])Oc1ccc(F)cc1C(C)(C)CC(O)(CNc1ccc2c(c1)COC2=O)C(F)(F)F (single isomer, unassigned; enantiomer b) [CpdX-D3(eB), 5-{4-[2-(methoxy-D3)-5-fluorophenyl]-2-hydroxy-4-methyl-2-(trifluoromethyl)pentylamino}isobenzofuran-1(3H)-one enantiomer B]	did not result in any significant thymus apoptosis	no significant difference	considerably reduced	similarly repressed	almost reestablished	significantly decreased	not significantly decreased	markedly increased	increased	much higher	no such decrease
COc1ccc(F)cc1C(C)(C)CC(O)(CNc1ccc2c(c1)COC2=O)C(F)(F)F (single isomer, unassigned; enantiomer b) [CpdX(eB), 5-[4-(5-fluoro-2-methoxyphenyl)-2-hydroxy-4-methyl-2-(trifluoromethyl)-pentylamino]isobenzofuran-1(3H)-one enantiomer B]	did not result in any significant thymus apoptosis	no significant difference	considerably reduced	similarly repressed	almost reestablished	significantly decreased	not significantly decreased	markedly increased	increased	much higher	no such decrease
